According to US12180187B2, “1-phenyl-5-azinylpyrazolyl-3-oxyalkyl acids and their use for controlling unwanted plant growth” (BAYER AKTIENGESELLSCHAFT, priority 2019, dated 2024):

Experiments:
KCHSC [1] = experiment: Pre-emergence action against KCHSC, 1280 g/ha; format: in vivo, Bassia scoparia; conditions: scored visually after about 3 weeks vs untreated controls (100% = plants have died)
Excerpt: 1. Pre-Emergence Herbicidal Effect and Crop Plant Compatibility a) Seeds of mono- and dicotyledonous weed plants are placed in plastic pots in sandy loam soil (doubly sown with one species each of mono- or dicotyledonous weed plants per pot) and covered with soil. The compounds of the invention, formulated in the form of wettable powders (WP) or as emulsion concentrates (EC), are then applied onto the surface of the covering soil as aqueous suspension or emulsion with addition of 0.5% additive at a water application rate equivalent to 600 litres per hectare. After the treatment, the pots are placed in a greenhouse and kept under good growth conditions for the trial plants. After about 3 weeks, the effect of the preparations is scored visually in comparison with untreated controls as percentages. For example, 100% activity=the plants have died, 0% activity=like control plants. 1. Pre-Emergence Effectiveness Tables 1 to 12 below show the effects of selected compounds of the general formula (I) according to Tables 1 and 2 on various harmful plants and at an application rate corresponding to 1280 g/ha, which were obtained by the experimental procedure mentioned above.

POAAN [2] = experiment: Pre-emergence action against POAAN, 1280 g/ha; format: in vivo, Poa annua; conditions: visual scoring after about 3 weeks vs untreated controls, 100% = plants have died, 0% = like control plants
Method in brief: (§1)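 Weed seeds sown in sandy loam in pots, covered with soil; compound as WP or EC applied to soil surface as aqueous suspension/emulsion with 0.5% additive at 600 L/ha water. Greenhouse, good growth conditions; visual % damage vs untreated controls after about 3 weeks (100% = plants dead, 0% = like control).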

VERPE [3] = experiment: Pre-emergence action against VERPE, 1280 g/ha; format: in vivo, Veronica persica; conditions: scored visually after about 3 weeks vs untreated controls (100% = plants have died)
Method in brief: as §1

LOLRI = experiment: Pre-emergence action against LOLRI, 1280 g/ha; format: in vivo, Lolium rigidum; conditions: visual scoring after about 3 weeks vs untreated controls, 100% = plants have died, 0% = like control plants
Method in brief: as §1

SETVI [4] = experiment: Pre-emergence action against SETVI, 1280 g/ha; format: in vivo, Setaria viridis; conditions: visual scoring after about 3 weeks vs untreated controls, 100% = plants have died, 0% = like control plants
Method in brief: as §1

AMARE [5] = experiment: Pre-emergence action against AMARE, 1280 g/ha; format: in vivo, Amaranthus retroflexus; conditions: scored visually after about 3 weeks vs untreated controls (100% = plants have died)
Method in brief: as §1

MATIN [6] = experiment: Post-emergence action against MATIN, 1.28 kg/ha; format: in vivo, Tripleurospermum inodorum (Matricaria inodora); conditions: dosage 1280 g/ha, visual rating about 3 weeks after treatment vs untreated controls (100% = plants died)
Method in brief: (§2)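 Spray at one-leaf stage with WP/EC + 0.5% additive, 600 L water/ha. Greenhouse, optimum conditions, ~3 wk. Visual % control vs untreated; 0 = no effect, 100 = dead.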

KCHSC [7] = experiment: Post-emergence action against KCHSC, 1.28 kg/ha; format: in vivo, Bassia scoparia; conditions: dosage 1280 g/ha, visual rating about 3 weeks after treatment vs untreated controls (100% = plants died)
Method in brief: as §2

POAAN [8] = experiment: Post-emergence action against POAAN, 1.28 kg/ha; format: in vivo, Poa annua; conditions: dosage 1280 g/ha, visual rating about 3 weeks after treatment vs untreated controls
Method in brief: as §2

MATIN [9] = experiment: Pre-emergence action against MATIN, 1280 g/ha; format: in vivo, Tripleurospermum inodorum (Matricaria inodora); conditions: scored visually after about 3 weeks vs untreated controls (100% = plants have died)
Method in brief: as §1

ECHCG [10] = experiment: Pre-emergence action against ECHCG, 1280 g/ha; format: in vivo, Echinochloa crus-galli; conditions: visual scoring after about 3 weeks vs untreated controls, 100% = plants have died, 0% = like control plants
Method in brief: as §1

STEME [11] = experiment: Post-emergence action against STEME, 1.28 kg/ha; format: in vivo, Stellaria media; conditions: dosage 1280 g/ha, visual rating about 3 weeks after treatment vs untreated controls (100% = plants died)
Method in brief: as §2

VERPE [12] = experiment: Post-emergence action against VERPE, 1.28 kg/ha; format: in vivo, Veronica persica; conditions: dosage 1280 g/ha, visual rating about 3 weeks after treatment vs untreated controls (100% = plants died)
Method in brief: as §2

STEME [13] = experiment: Pre-emergence action against STEME, 1280 g/ha; format: in vivo, Stellaria media; conditions: scored visually after about 3 weeks vs untreated controls (100% = plants have died)
Method in brief: as §1

ECHCG [14] = experiment: Post-emergence action against ECHCG, 1.28 kg/ha; format: in vivo, Echinochloa crus-galli; conditions: dosage 1280 g/ha, visual rating about 3 weeks after treatment vs untreated controls
Method in brief: as §2

ABUTH = experiment: Post-emergence action against ABUTH, 1.28 kg/ha; format: in vivo, Abutilon theophrasti; conditions: dosage 1280 g/ha, visual rating about 3 weeks after treatment vs untreated controls (100% = plants died)
Method in brief: as §2

DIGSA [15] = experiment: Post-emergence action against DIGSA, 1.28 kg/ha; format: in vivo, Digitaria sanguinalis; conditions: dosage 1280 g/ha, visual rating about 3 weeks after treatment vs untreated controls
Method in brief: as §2

ALOMY [16] = experiment: Post-emergence action against ALOMY, 1.28 kg/ha; format: in vivo, Alopecurus myosuroides; conditions: dosage 1280 g/ha, visual rating about 3 weeks after treatment vs untreated controls
Method in brief: as §2

ALOMY [17] = experiment: Pre-emergence action against ALOMY, 1280 g/ha; format: in vivo, Alopecurus myosuroides; conditions: visual scoring after about 3 weeks vs untreated controls, 100% = plants have died, 0% = like control plants
Method in brief: as §1

SETVI [18] = experiment: Post-emergence action against SETVI, 1.28 kg/ha; format: in vivo, Setaria viridis; conditions: dosage 1280 g/ha, visual rating about 3 weeks after treatment vs untreated controls
Method in brief: as §2

DIGSA [19] = experiment: Pre-emergence action against DIGSA, 1280 g/ha; format: in vivo, Digitaria sanguinalis; conditions: visual scoring after about 3 weeks vs untreated controls, 100% = plants have died, 0% = like control plants
Method in brief: as §1

AMARE [20] = experiment: Post-emergence action against AMARE, 1.28 kg/ha; format: in vivo, Amaranthus retroflexus; conditions: dosage 1280 g/ha, visual rating about 3 weeks after treatment vs untreated controls (100% = plants died)
Method in brief: as §2

| SMILES | Pre-emergence action against KCHSC (KCHSC [1]) | Pre-emergence action against POAAN (POAAN [2]) | Pre-emergence action against VERPE (VERPE [3]) | Pre-emergence action against LOLRI (LOLRI) | Pre-emergence action against SETVI (SETVI [4]) | Pre-emergence action against AMARE (AMARE [5]) | Post-emergence action against MATIN (MATIN [6]) | Post-emergence action against KCHSC (KCHSC [7]) | Post-emergence action against POAAN (POAAN [8]) | Pre-emergence action against MATIN (MATIN [9]) | Pre-emergence action against ECHCG (ECHCG [10]) | Post-emergence action against STEME (STEME [11]) | Post-emergence action against VERPE (VERPE [12]) | Pre-emergence action against STEME (STEME [13]) | Post-emergence action against ECHCG (ECHCG [14]) | Post-emergence action against ABUTH (ABUTH) | Post-emergence action against DIGSA (DIGSA [15]) | Post-emergence action against ALOMY (ALOMY [16]) | Pre-emergence action against DIGSA (DIGSA [19]) | Post-emergence action against AMARE (AMARE [20]) | other results |
| --- | --- | --- | --- | --- | --- | --- | --- | --- | --- | --- | --- | --- | --- | --- | --- | --- | --- | --- | --- | --- | --- |
| O=C(O)C1CCCN1C(=O)COc1nn(-c2ccccc2F)c(-c2ccc(F)nc2)c1Br (stereo not shown) [Example X-009] | 90% | 100% | 100% | 100% | 100% | 100% | 90% | 90% | 100% | 100% | 100% | 100% | 100% | 100% | 100% | 100% | 90% | 100% | 90% | 100% | Pre-emergence action against ALOMY (ALOMY [17]): 100%; Post-emergence action against SETVI (SETVI [18]): 100% |
| COC(=O)CNC(=O)COc1nn(-c2ccc(F)cc2)c(-c2ccc(F)nc2)c1C(F)(F)F [Example X-020] | 90% | 100% | 90% | 100% | 100% | 90% | 90% | 100% | 100% | 90% | 100% | 100% | 100% | 90% | 100% | 90% | – | 100% | 100% | 100% | Pre-emergence action against ALOMY (ALOMY [17]): 100% |
| O=C(COc1nn(-c2ccc(F)cc2F)c(-c2ccc(F)nc2)c1Br)NO [Example X-028] | 100% | 100% | 90% | 100% | 100% | 100% | 100% | 90% | 100% | 100% | 100% | 90% | 100% | 100% | 100% | – | – | 100% | 100% | – | Pre-emergence action against ALOMY (ALOMY [17]): 90%; Post-emergence action against SETVI (SETVI [18]): 90% |
| O=C(O)COc1nn(-c2ccccc2F)c(-c2ccnnc2)c1Br [IV-002] | 90% | 100% | – | – | 100% | 100% | 90% | 90% | 100% | 100% | 100% | 100% | 90% | 100% | – | 90% | 100% | – | 90% | 100% | – |
| CCOC(=O)COc1nn(-c2ccccc2F)c(-c2cncnc2)c1[N+](=O)[O-] [VI-005] | 90% | 100% | 100% | 100% | 100% | 100% | 90% | 90% | 100% | 100% | 90% | 100% | 90% | 100% | 90% | 90% | – | 90% | 100% | 90% | Pre-emergence action against ALOMY (ALOMY [17]): 90% |
| COC(=O)[C@H](C)Oc1nn(-c2ccccc2F)c(-c2cncnc2)c1Br [VI-008] | 90% | 100% | – | 100% | 100% | 100% | 90% | 90% | 100% | 90% | – | 90% | – | 100% | – | 90% | 100% | – | 100% | – | – |
| CC(Oc1nn(-c2ccccc2F)c(-c2ccc(F)nc2)c1Br)C(=O)O (stereo not shown) [VII-096] | 100% | 100% | 100% | 100% | 100% | 100% | 90% | 90% | 100% | 100% | 100% | 100% | 90% | 100% | 90% | – | 100% | 100% | 100% | 100% | Pre-emergence action against ALOMY (ALOMY [17]): 100%; Post-emergence action against SETVI (SETVI [18]): 90% |
| O=C(O)COc1nn(-c2ccc(F)cc2)c(-c2ccc(F)nc2)c1C(F)(F)F [VII-125] | 100% | 100% | 90% | 100% | 100% | 90% | 90% | 90% | 100% | 90% | 100% | 90% | 100% | 90% | 90% | – | 100% | 100% | 100% | 90% | – |
